Assays:
[1] = system: aberrant blood cells of thalassemia; conditions: in vitro; cited from earlier work
HT-29 = conditions: in vitro; cited from earlier work
[2] = system: aberrant blood cells of sickle cell anemia; conditions: in vitro; cited from earlier work
HL-60 = conditions: in vitro; cited from earlier work
[3] = plasma, humans and rabbits; cited from earlier work
[4] = continuous intravenous infusions, 500 mg/kg/day or higher, several days; cited from earlier work
leukemia [5] = conditions: intravenous infusion, 500 mg/kg per day; cited from earlier work
[6] = intravenous infusion, 500 mg/kg per day; cited from earlier work
thalassemia = conditions: continuous intravenous infusions, 500 mg/kg/day or higher, several days; cited from earlier work
[7] = system: cancer or transformed cells lines; conditions: combinations of sodium butyrate and active Vitamin D forms; cited from earlier work
leukemia [8] = conditions: intravenous infusions 500 mg/kg body weight per day for several days, child with leukemia; cited from earlier work
[9] = system: 1,2-dimethylhydraxine-induced rat intestine neoplasia; conditions: equivalent intake to tributyrin at 5% of feed; cited from earlier work
sickle cell = conditions: continuous intravenous infusions, 500 mg/kg/day or higher, several days; cited from earlier work
[10] = set-up: species or system male Sprague Dawley rats; conditions: rat, in vivo
Protocol: Three male Sprague Dawley rats (Harlan Sprague Dawley, Houston, Tex.) weighing approximately 306 g were fasted overnight and gavaged with 1 gm of tributyrin (Sigma catalog #T-5142, 99% pure, 302.4M) directly into the stomach. A fourth rat-was not gavaged. Rats were sacrificed at time zero (without gavage) or 0.5, 2 and 4 hours post gavage. At time of sacrifice, each rat was anesthetized with a mixture of ketamine (87 mg/kg) and rompun (13 mg/kg). A cardiac puncture was performed and approximately 2 mls of blood was withdrawn into a heparinized vacutainer tube. Blood was centrifuged at 2000×g for 7 minutes and plasma was withdrawn and stored frozen until analysis. At the time of analysis, plasma concentration was determined by the method of Remsey and Demigne (1974) using chromatographic methods as described by Boffa et al. (1992).
A single oral dose bolus of 1 gm of tributyrin was administered to rats, and the plasma levels of free butyrate measured over 4 hours.

[11] = system: chemically induced colon cancer; conditions: 5% of the feed, mice; cited from earlier work

Structure (SMILES): CCCC(=O)O [butyrate, butyric acid]
- concentration giving desirable changes of aberrant blood cells [1]: about 0.05 mM
- concentration at which butyrate has differentiation action (HT-29): 0.3 to 5 mM
- concentration giving desirable changes of aberrant blood cells [2]: about 0.05 mM
- concentration at which butyrate has differentiation action (HL-60): 0.3 to 5 mM

Structure (SMILES): CCCC(=O)[O-].[Na+] [sodium butyrate]
- half-life [3]: about 6 minutes
- metabolism of butyrate [4]: apparently rapidly metabolized
- clinical response (leukemia [5]): no clinical response
- metabolic half-life [6]: about 6 minutes
- success in treating thalassemia patients (thalassemia): success
- effect of combination with active Vitamin D forms on differentiation [7]: additive or synergistic effects
- remission (leukemia [8]): short-lived remission
- promoting or cancer increasing effect [9]: promoting or cancer increasing effect
- success in treating sickle cell patients (sickle cell): success

Structure (SMILES): CCCC(=O)OCC(COC(=O)CCC)OC(=O)CCC [tributyrin, glyceryl tributyrate]
- absorption of butyrate [10]: very rapidly absorbed
- return of plasma butyrate to baseline [10]: almost back to baseline at 4 hours
- half-life of butyrate ([10]; po): about 40 minutes
- peak level of butyrates ([10]; po): 0.35 mM
- time over 0.10 mM butyrate ([10]; po): about 2 hours
- prevention of chemically induced colon cancer [11]: ineffective
- promoting or cancer increasing effect [11]: did not produce the promoting or cancer increasing effect
